Measured values from patent US20230227484A1, “PYRIMIDINE COMPOUND AS AXL INHIBITOR” (NANJING CHIA TAI TIANQING PHARMACEUTICAL CO., LTD., priority 2020, published 2023).

System: MV-4-11 (human myeloid monocytic leukemia cell line)
Test: Proliferation inhibition activity of compounds to MV-4-11 cells (CellTiter-Glo)
Assay type: cell-based
Conditions: MV4-11 cells, 72 h dosing
Description: MV-4-11 (human myeloid monocytic leukemia cell line, culture medium: JIMDM+10% fetal bovine serum) is purchased from Cobioer Biosciences Co., Ltd and cultured in a 5% C02 incubator at 37° C. The cells in a logarithmic growth phase are plated in a 96-well plate at cell densities of 8000 cells/well, 6000 cells/well, 2000 cells/well, 2000 cells/well and 3000 cells/well, and a blank control group is set at the same time.
A compound to be tested and the positive drug are dissolved in dimethyl sulfoxide to prepare a 10 mM stock solution, which is then stored in −80° C. refrigerator for long-time storage. After the cells are plated for 24 h, the 10 mM compound stock solution is diluted with dimethyl sulfoxide to obtain a working solution having a 200-fold concentration (the highest concentration is 200 or 2000 μM, a 3-fold gradient, a total of 10 concentrations), and 3 μL of the working solution of each concentration is added to 197 μL of complete medium, and diluted into a working solution of 3-fold concentration. 50 μL of the working solution is then taken and added to a 100 μL cell culture medium (a final concentration of dimethyl sulfoxide is 0.5%, v/v), and two complex holes are set for each concentration. After 72 h of dosing treatment, 50 μl of CellTiter-Glo® (purchased from Promega) is added to each well. Fluorescence signals are measured on Envision (PerkinElmer) according to an operating procedure of the specification. GraphPad Prism 5 software log(inhibitor) vs. response-Variable slope is used to fit a dose-response curve, so as to obtain the IC50 value of the compound to the inhibition of cell-proliferation. The calculation formulation of the inhibition rate is as follows: […]
wherein: signal value of subject: a mean fluorescence signal of cell+medium+compound group; signal value of blank group: a mean fluorescence signal of medium group (containing 0.5% DMSO); signal value of negative control group: a mean fluorescence signal of cell+medium group (containing 0.5% DMSO).

Row | SMILES | IC50 [nM]
1 | CP(C)(=O)c1cc(OC(F)F)ccc1Nc1nc(Nc2ccc3c(c2)CC[C@@H](N2CCCC2)CC3)ncc1Cl [Example 75, (S)-(2-((5-chloro-2-((7-(pyrrolidin-1-yl)-6,7,8,9-tetrahydro-5H-benzo[7]annulen-2-yl)amino)pyrimidin-4-yl)amino)-5-(difluoromethoxyl)phenyl)dimethyl phosphine oxide] | 2.93
2 | CP(C)(=O)c1cc(OC(F)(F)F)ccc1Nc1nc(Nc2ccc3c(c2)CC[C@@H](N2CCCC2)CC3)ncc1Cl [Example 76, (S)-(2-((5-chloro-2-((7-(pyrrolidin-1-yl)-6,7,8,9-tetrahydro-5H-benzo[7]annulen-2-yl)amino)pyrimidin-4-yl)amino)-5-(trifluoromethoxyl)phenyl)dimethyl phosphine oxide] | 7.98
3 | CNC(=O)c1ccc(Nc2nc(Nc3ccc4c(c3)CC[C@@H](N3CCCC3)CC4)ncc2Cl)c(P(C)(C)=O)c1 [Example 77, (S)-4-((5-chloro-2-((7-(pyrrolidin-1-yl)-6,7,8,9-tetrahydro-5H-benzo[7]annulen-2-yl)amino)pyrimidin-4-yl)amino)-3-(dimethylphosphoryl)-N-methylbenzamide] | 10.1
4 | Cc1ccc(Nc2nc(Nc3ccc4c(c3)CC[C@@H](N3CCCC3)CC4)ncc2Cl)c(P(C)(C)=O)n1 [Example 81, (S)-(3-((5-chloro-2-((7-(pyrrolidin-1-yl)-6,7,8,9-tetrahydro-5H-benzo[7]annulen-2-yl)amino)pyrimidin-4-yl)amino)-6-methylpyridin-2-yl)dimethyl phosphine oxide] | 3.13
5 | CP(C)(=O)c1cc(-n2cnnn2)ccc1Nc1nc(Nc2ccc3c(c2)CC[C@@H](N2CCCC2)CC3)ncc1Cl [Example 109, (S)-(2-((5-chloro-2-((7-(pyrrolidin-1-yl)-6,7,8,9-tetrahydro-5H-benzo[7]annulen-2-yl)amino)pyrimidin-4-yl)amino)-5-(1H-tetrazol-1-yl)phenyl)dimethyl phosphine oxide] | 8.56
